Key:
Test in all cases: stopped-flow CO2 hydrase assay
Format in all cases: biochemical
Settings in all cases: read-out: [drawing 1] / 1
hCA I = target: T1, hCA I (Homo sapiens, UniProt P00915)
T1 construct: gene CA1; recombinant, in-house
Description: stopped-flow CO2 hydrase assay on hCA I

hCA II = target: T2, hCA II (Homo sapiens, UniProt P00918)
T2 construct: gene CA2; recombinant, in-house
Description: stopped-flow CO2 hydrase assay on hCA II

hCA XIII = target: T3, hCA XIII (Homo sapiens, UniProt Q8N1Q1)
T3 construct: gene CA13; recombinant, in-house
T3 sequence (Q8N1Q1 whole entry): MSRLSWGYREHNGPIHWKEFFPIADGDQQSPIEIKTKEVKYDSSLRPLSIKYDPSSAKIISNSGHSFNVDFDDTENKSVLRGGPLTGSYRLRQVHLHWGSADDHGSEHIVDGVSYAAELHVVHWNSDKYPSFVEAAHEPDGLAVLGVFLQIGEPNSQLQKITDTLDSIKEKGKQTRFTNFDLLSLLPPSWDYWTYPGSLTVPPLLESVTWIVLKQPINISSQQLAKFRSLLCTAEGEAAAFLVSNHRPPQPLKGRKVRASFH
Description: stopped-flow CO2 hydrase assay on hCA XIII

hCA IX = target: T4, hCA IX (Homo sapiens, UniProt Q16790)
T4 construct: gene CA9; recombinant, in-house
Description: stopped-flow CO2 hydrase assay on hCA IX

hCA VB = target: T5, hCA VB (Homo sapiens, UniProt Q9Y2D0)
T5 construct: gene CA5B; recombinant, in-house
T5 sequence (Q9Y2D0 34-317): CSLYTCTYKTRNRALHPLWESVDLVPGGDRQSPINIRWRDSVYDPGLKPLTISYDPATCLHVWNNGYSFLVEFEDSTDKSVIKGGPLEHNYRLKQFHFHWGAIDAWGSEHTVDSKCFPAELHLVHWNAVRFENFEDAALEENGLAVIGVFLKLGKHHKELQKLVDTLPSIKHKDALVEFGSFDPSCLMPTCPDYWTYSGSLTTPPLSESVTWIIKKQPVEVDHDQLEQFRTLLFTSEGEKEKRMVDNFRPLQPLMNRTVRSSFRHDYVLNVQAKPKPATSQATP
Description: stopped-flow CO2 hydrase assay on hCA VB

hCA IV = target: T6, hCA IV (Homo sapiens, UniProt P22748)
T6 construct: gene CA4; recombinant, in-house
T6 sequence (P22748 19-284): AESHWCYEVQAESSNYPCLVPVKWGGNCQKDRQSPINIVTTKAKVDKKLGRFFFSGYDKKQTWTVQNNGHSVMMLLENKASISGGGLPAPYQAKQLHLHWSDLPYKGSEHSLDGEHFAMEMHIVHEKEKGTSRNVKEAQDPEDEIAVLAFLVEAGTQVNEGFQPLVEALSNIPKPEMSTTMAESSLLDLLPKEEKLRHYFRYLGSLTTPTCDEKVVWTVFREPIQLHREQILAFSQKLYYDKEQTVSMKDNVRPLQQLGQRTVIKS
Description: stopped-flow CO2 hydrase assay on hCA IV

hCA VA = target: T7, hCA VA (Homo sapiens, UniProt P35218)
T7 construct: gene CA5A; recombinant, in-house
T7 sequence (P35218 39-305): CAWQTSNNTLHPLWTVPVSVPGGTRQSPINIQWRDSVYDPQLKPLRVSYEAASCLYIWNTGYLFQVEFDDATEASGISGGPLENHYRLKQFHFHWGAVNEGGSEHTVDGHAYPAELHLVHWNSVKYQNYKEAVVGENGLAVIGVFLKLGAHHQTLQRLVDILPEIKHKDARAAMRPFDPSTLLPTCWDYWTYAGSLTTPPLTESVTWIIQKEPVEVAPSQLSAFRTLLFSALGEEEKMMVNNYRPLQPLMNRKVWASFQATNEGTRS
Description: stopped-flow CO2 hydrase assay on hCA VA

hCA VI = target: T8, hCA VI (Homo sapiens, UniProt P23280)
T8 construct: gene CA6; recombinant, in-house
T8 sequence (P23280 18-308): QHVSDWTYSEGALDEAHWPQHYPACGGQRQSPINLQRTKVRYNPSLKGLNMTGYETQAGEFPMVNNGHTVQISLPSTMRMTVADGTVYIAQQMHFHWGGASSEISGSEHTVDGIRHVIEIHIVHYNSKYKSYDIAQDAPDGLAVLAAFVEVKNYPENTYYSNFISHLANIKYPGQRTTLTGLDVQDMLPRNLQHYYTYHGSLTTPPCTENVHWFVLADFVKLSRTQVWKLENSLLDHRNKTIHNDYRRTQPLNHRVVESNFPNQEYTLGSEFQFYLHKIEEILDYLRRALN
Description: stopped-flow CO2 hydrase assay on hCA VI

hCA VII = target: T9, hCA VII (Homo sapiens, UniProt P43166)
T9 construct: gene CA7; recombinant, in-house
T9 sequence (P43166 whole entry): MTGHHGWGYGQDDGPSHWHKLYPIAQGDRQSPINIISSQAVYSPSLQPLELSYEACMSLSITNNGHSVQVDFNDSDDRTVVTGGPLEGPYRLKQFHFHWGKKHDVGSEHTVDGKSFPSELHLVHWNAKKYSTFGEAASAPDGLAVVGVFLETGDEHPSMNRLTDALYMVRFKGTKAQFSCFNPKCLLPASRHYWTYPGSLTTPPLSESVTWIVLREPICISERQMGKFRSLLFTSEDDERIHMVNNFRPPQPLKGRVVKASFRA
Description: stopped-flow CO2 hydrase assay on hCA VII

hCA XIV = target: T10, hCA XIV (Homo sapiens, UniProt Q9ULX7)
T10 construct: gene CA14; recombinant, in-house
T10 sequence (Q9ULX7 16-290 limits assumed): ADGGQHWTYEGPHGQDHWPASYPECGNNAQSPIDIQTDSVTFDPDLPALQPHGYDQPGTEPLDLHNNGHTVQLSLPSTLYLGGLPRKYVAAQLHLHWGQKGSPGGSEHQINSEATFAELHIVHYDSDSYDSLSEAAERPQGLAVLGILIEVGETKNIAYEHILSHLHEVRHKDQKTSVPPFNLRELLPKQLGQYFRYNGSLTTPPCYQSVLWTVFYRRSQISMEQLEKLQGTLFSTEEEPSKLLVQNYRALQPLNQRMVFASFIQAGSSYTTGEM
Description: stopped-flow CO2 hydrase assay on hCA XIV

hCA XII = target: T11, hCA XII (Homo sapiens, UniProt O43570)
T11 construct: gene CA12; recombinant, in-house
T11 sequence (O43570 25-354): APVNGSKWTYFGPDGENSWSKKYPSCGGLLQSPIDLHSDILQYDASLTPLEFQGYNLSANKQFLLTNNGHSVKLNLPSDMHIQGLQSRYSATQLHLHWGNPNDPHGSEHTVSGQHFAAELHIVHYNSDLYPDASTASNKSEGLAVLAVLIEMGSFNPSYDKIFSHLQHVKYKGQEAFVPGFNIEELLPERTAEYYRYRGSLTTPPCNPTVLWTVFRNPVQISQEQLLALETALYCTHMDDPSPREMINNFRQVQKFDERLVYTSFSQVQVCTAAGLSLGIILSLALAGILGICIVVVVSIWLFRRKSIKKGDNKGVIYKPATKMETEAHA
Description: stopped-flow CO2 hydrase assay on hCA XII

T1 sequence (P00915 2-261): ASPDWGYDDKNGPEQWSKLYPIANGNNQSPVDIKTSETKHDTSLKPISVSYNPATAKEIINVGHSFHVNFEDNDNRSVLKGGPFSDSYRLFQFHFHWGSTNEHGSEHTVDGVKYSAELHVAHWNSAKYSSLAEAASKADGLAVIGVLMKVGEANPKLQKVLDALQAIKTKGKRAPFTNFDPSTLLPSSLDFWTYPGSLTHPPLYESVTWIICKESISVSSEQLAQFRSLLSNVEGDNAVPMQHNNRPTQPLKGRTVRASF

- Ki (hCA I): 3.3 µM
- Ki (hCA II): 7.5 µM
- Ki (hCA XIII): 87 µM
- Ki (hCA IX): 6.3 µM
- Ki (hCA VB): 2.8 µM
- Ki (hCA IV): 8.8 µM
- Ki (hCA VA): 7.5 µM
- Ki (hCA VI): 7 µM
- Ki (hCA VII): 9.2 µM
- Ki (hCA XIV): 5.9 µM
- Ki (hCA XII): 8.4 µM
Structure (SMILES): Cc1cnc(C(=O)O)c[n+]1[O-] [compound 1, Acipimox]

Source: PMC8843171 (Journal of Enzyme Inhibition and Medicinal Chemistry, 2022)
